According to patent US20110173718A1, “HERBICIDE TOLERANT PLANTS” (SYNGENTA CROP PROTECTION, INC., priority 2008, published 2011):

System: weeds
Experiment: Glasshouse weed control by HST/HPPD (mesotrione) mixtures, pre-emergence
Assay type: in vivo
Settings: for colby: Colby synergy score; for % Damage at 14 DAA, 1 g ai ha^−1 mesotrione / % Damage at 14 DAA, no-mesotrione: N = 3
Experimental: Weed seeds are planted out in trays containing suitable soil (for example 50% peat, 50% John Innes soil no 3) and grown in the glass house conditions under 24-27° C. day; 18-21° C. night and approximately a 14 h (or longer in UK summer) photoperiod. Humidity is ˜65% and light levels up to 2000 μmol/m^2 at bench level. Trays are sprayed with test chemicals dissolved in water with 0.2-0.25% X-77 surfactant and sprayed from a boom on a suitable track sprayer moving at about 2 mph in a suitable track sprayer (for example a DeVries spray chamber with the nozzle about 2 inches from the plant tops). Spray volume is suitably 500-1000 l/ha. Sprays are carried out both pre-emergence and over small plants at about 7-12 d post-emergence
Plants are assessed 14 DAT and herbicidal damage is scored on a scale from 0 to 100%. The HST inhibitor compound 2.30 (designated compound A in table 16 and 17), haloxydine (compound 1.1) and compound 2.13 (designated compound AE in tables 16 and 17) are sprayed at rates between 0 and 500 g/ha.

[1] = ALOMY, 16 g/ha + mesotrione 1 g ai/ha
[2] = ALOMY, 31 g/ha + mesotrione 1 g ai/ha
[3] = ALOMY, 63 g/ha + mesotrione 1 g ai/ha
[4] = ALOMY, 125 g/ha + mesotrione 1 g ai/ha
[5] = ALOMY, 250 g/ha + mesotrione 1 g ai/ha
[6] = ALOMY, 500 g/ha + mesotrione 1 g ai/ha
[7] = AMARE, 16 g/ha + mesotrione 1 g ai/ha
[8] = AMARE, 31 g/ha + mesotrione 1 g ai/ha
[9] = AMARE, 63 g/ha + mesotrione 1 g ai/ha
[10] = AMARE, 125 g/ha + mesotrione 1 g ai/ha
[11] = AMARE, 250 g/ha + mesotrione 1 g ai/ha
[12] = AMARE, 500 g/ha + mesotrione 1 g ai/ha
[13] = ECHCG, 16 g/ha + mesotrione 1 g ai/ha
[14] = ECHCG, 31 g/ha + mesotrione 1 g ai/ha
[15] = ECHCG, 63 g/ha + mesotrione 1 g ai/ha
[16] = ECHCG, 125 g/ha + mesotrione 1 g ai/ha
[17] = ECHCG, 250 g/ha + mesotrione 1 g ai/ha
[18] = ECHCG, 500 g/ha + mesotrione 1 g ai/ha
[19] = IPOHE, 16 g/ha + mesotrione 1 g ai/ha
[20] = IPOHE, 31 g/ha + mesotrione 1 g ai/ha
[21] = IPOHE, 63 g/ha + mesotrione 1 g ai/ha
[22] = IPOHE, 125 g/ha + mesotrione 1 g ai/ha
[23] = IPOHE, 250 g/ha + mesotrione 1 g ai/ha
[24] = IPOHE, 500 g/ha + mesotrione 1 g ai/ha
[25] = SETFA, 16 g/ha + mesotrione 1 g ai/ha
[26] = SETFA, 31 g/ha + mesotrione 1 g ai/ha
[27] = SETFA, 63 g/ha + mesotrione 1 g ai/ha
[28] = SETFA, 125 g/ha + mesotrione 1 g ai/ha
[29] = SETFA, 250 g/ha + mesotrione 1 g ai/ha
[30] = SETFA, 500 g/ha + mesotrione 1 g ai/ha
[31] = SOLNI, 16 g/ha + mesotrione 1 g ai/ha
[32] = SOLNI, 31 g/ha + mesotrione 1 g ai/ha
[33] = SOLNI, 63 g/ha + mesotrione 1 g ai/ha
[34] = SOLNI, 125 g/ha + mesotrione 1 g ai/ha
[35] = SOLNI, 250 g/ha + mesotrione 1 g ai/ha
[36] = SOLNI, 500 g/ha + mesotrione 1 g ai/ha

What does the source list for O=c1c(-c2c(F)ccc(F)c2Cl)c(O)c2cccnc2n1CC(F)F [Compound 2.13]?
colby [1]: 0%; % Damage at 14 DAA, 1 g ai ha^−1 mesotrione [1]: 0%; % Damage at 14 DAA, no-mesotrione (ALOMY, 16 g/ha): 0%; colby [2]: 0%; % Damage at 14 DAA, 1 g ai ha^−1 mesotrione [2]: 0%; % Damage at 14 DAA, no-mesotrione (ALOMY, 31 g/ha): 0%; colby [3]: 0%; % Damage at 14 DAA, 1 g ai ha^−1 mesotrione [3]: 0%; % Damage at 14 DAA, no-mesotrione (ALOMY, 63 g/ha): 0%; colby [4]: 0%; % Damage at 14 DAA, 1 g ai ha^−1 mesotrione [4]: 0%; % Damage at 14 DAA, no-mesotrione (ALOMY, 125 g/ha): 0%; colby [5]: 0%; % Damage at 14 DAA, 1 g ai ha^−1 mesotrione [5]: 0%; % Damage at 14 DAA, no-mesotrione (ALOMY, 250 g/ha): 0%; colby [6]: −1%; % Damage at 14 DAA, 1 g ai ha^−1 mesotrione [6]: 0%; % Damage at 14 DAA, no-mesotrione (ALOMY, 500 g/ha): 2%; colby [7]: 5%; % Damage at 14 DAA, 1 g ai ha^−1 mesotrione [7]: 7%; % Damage at 14 DAA, no-mesotrione (AMARE, 16 g/ha): 0%; colby [8]: 13%; % Damage at 14 DAA, 1 g ai ha^−1 mesotrione [8]: 23%; % Damage at 14 DAA, no-mesotrione (AMARE, 31 g/ha): 8%; colby [9]: 4%; % Damage at 14 DAA, 1 g ai ha^−1 mesotrione [9]: 33%; % Damage at 14 DAA, no-mesotrione (AMARE, 63 g/ha): 28%; colby [10]: 12%; % Damage at 14 DAA, 1 g ai ha^−1 mesotrione [10]: 45%; % Damage at 14 DAA, no-mesotrione (AMARE, 125 g/ha): 32%; colby [11]: 3%; % Damage at 14 DAA, 1 g ai ha^−1 mesotrione [11]: 57%; % Damage at 14 DAA, no-mesotrione (AMARE, 250 g/ha): 53%; colby [12]: 9%; % Damage at 14 DAA, 1 g ai ha^−1 mesotrione [12]: 70%; % Damage at 14 DAA, no-mesotrione (AMARE, 500 g/ha): 60%; colby [13]: 0%; % Damage at 14 DAA, 1 g ai ha^−1 mesotrione [13]: 0%; % Damage at 14 DAA, no-mesotrione (ECHCG, 16 g/ha): 0%; colby [14]: 0%; % Damage at 14 DAA, 1 g ai ha^−1 mesotrione [14]: 0%; % Damage at 14 DAA, no-mesotrione (ECHCG, 31 g/ha): 0%; colby [15]: 3%; % Damage at 14 DAA, 1 g ai ha^−1 mesotrione [15]: 3%; % Damage at 14 DAA, no-mesotrione (ECHCG, 63 g/ha): 0%; colby [16]: 3%; % Damage at 14 DAA, 1 g ai ha^−1 mesotrione [16]: 3%; % Damage at 14 DAA, no-mesotrione (ECHCG, 125 g/ha): 0%; colby [17]: 2%; % Damage at 14 DAA, 1 g ai ha^−1 mesotrione [17]: 2%; % Damage at 14 DAA, no-mesotrione (ECHCG, 250 g/ha): 0%; colby [18]: −2%; % Damage at 14 DAA, 1 g ai ha^−1 mesotrione [18]: 2%; % Damage at 14 DAA, no-mesotrione (ECHCG, 500 g/ha): 3%; colby [19]: 0%; % Damage at 14 DAA, 1 g ai ha^−1 mesotrione [19]: 0%; % Damage at 14 DAA, no-mesotrione (IPOHE, 16 g/ha): 0%; colby [20]: 0%; % Damage at 14 DAA, 1 g ai ha^−1 mesotrione [20]: 0%; % Damage at 14 DAA, no-mesotrione (IPOHE, 31 g/ha): 0%; colby [21]: 7%; % Damage at 14 DAA, 1 g ai ha^−1 mesotrione [21]: 7%; % Damage at 14 DAA, no-mesotrione (IPOHE, 63 g/ha): 0%; colby [22]: 0%; % Damage at 14 DAA, 1 g ai ha^−1 mesotrione [22]: 0%; % Damage at 14 DAA, no-mesotrione (IPOHE, 125 g/ha): 0%; colby [23]: 5%; % Damage at 14 DAA, 1 g ai ha^−1 mesotrione [23]: 5%; % Damage at 14 DAA, no-mesotrione (IPOHE, 250 g/ha): 0%; colby [24]: 0%; % Damage at 14 DAA, 1 g ai ha^−1 mesotrione [24]: 17%; % Damage at 14 DAA, no-mesotrione (IPOHE, 500 g/ha): 17%; colby [25]: 0%; % Damage at 14 DAA, 1 g ai ha^−1 mesotrione [25]: 0%; % Damage at 14 DAA, no-mesotrione (SETFA, 16 g/ha): 0%; colby [26]: 0%; % Damage at 14 DAA, 1 g ai ha^−1 mesotrione [26]: 0%; % Damage at 14 DAA, no-mesotrione (SETFA, 31 g/ha): 0%; colby [27]: 0%; % Damage at 14 DAA, 1 g ai ha^−1 mesotrione [27]: 0%; % Damage at 14 DAA, no-mesotrione (SETFA, 63 g/ha): 0%; colby [28]: 0%; % Damage at 14 DAA, 1 g ai ha^−1 mesotrione [28]: 0%; % Damage at 14 DAA, no-mesotrione (SETFA, 125 g/ha): 0%; colby [29]: 0%; % Damage at 14 DAA, 1 g ai ha^−1 mesotrione [29]: 0%; % Damage at 14 DAA, no-mesotrione (SETFA, 250 g/ha): 0%; colby [30]: 0%; % Damage at 14 DAA, 1 g ai ha^−1 mesotrione [30]: 0%; % Damage at 14 DAA, no-mesotrione (SETFA, 500 g/ha): 0%; colby [31]: −12%; % Damage at 14 DAA, 1 g ai ha^−1 mesotrione [31]: 5%; % Damage at 14 DAA, no-mesotrione (SOLNI, 16 g/ha): 0%; colby [32]: −3%; % Damage at 14 DAA, 1 g ai ha^−1 mesotrione [32]: 23%; % Damage at 14 DAA, no-mesotrione (SOLNI, 31 g/ha): 12%; colby [33]: 4%; % Damage at 14 DAA, 1 g ai ha^−1 mesotrione [33]: 38%; % Damage at 14 DAA, no-mesotrione (SOLNI, 63 g/ha): 22%; colby [34]: 9%; % Damage at 14 DAA, 1 g ai ha^−1 mesotrione [34]: 53%; % Damage at 14 DAA, no-mesotrione (SOLNI, 125 g/ha): 33%; colby [35]: 5%; % Damage at 14 DAA, 1 g ai ha^−1 mesotrione [35]: 78%; % Damage at 14 DAA, no-mesotrione (SOLNI, 250 g/ha): 68%; colby [36]: −1%; % Damage at 14 DAA, 1 g ai ha^−1 mesotrione [36]: 87%; % Damage at 14 DAA, no-mesotrione (SOLNI, 500 g/ha): 85%
